Source: US9096499B2, “Compounds for treatment of cell proliferative diseases” (Board of Regents, The University of Texas System, priority 2003, dated 2015)
Entries after “also recorded” stand apart in the source; their conditions may differ.

Legend:
Type in all cases: cell-based
c-myc [1] = assay: c-myc protein expression by immunoblot in MM cells; parameters: key to C-Myc: (inhibition = ↓); (no effect) = —; details: for C-Myc: c-myc downregulation, immunoblot
Method: (§1) To determine the effect of compounds on both Stat3 activation and c-myc protein expression MM-1, OCI-My5 and U266 cells were incubated with 25 μM of AG1801, AG490, WP1038, WP1039, WP1051, or WP1052 for 2 hours before cells were stimulated with 2 ng/ml IL-6 for 10 min. Cell lysates were prepared and immunoblotted for p-Stat3, Stat3, c-myc and actin (as a control).
To determine the temporal effects and mechanism of action of AG490 and AG1801 action on c-myc expression in MM cells, MM-1 cells were incubated with 0, 25, or 50 μM of AG490 or AG1801 and harvested at 30, 60, or 120 min. Lysates were immunoblotted for c-myc or actin as a protein loading control. […] Semi-quantitative PCR was used to measure changes in c-myc mRNA extracted from cells treated for 30 min with AG1801 at 25 μM. GAPDH PCR was used as a control.
These compounds were evaluated for their signal inhibitory and anti-proliferative/apoptotic properties on multiple myeloma, lymphoma and chronic myelogenous leukemia cell lines. WP1015, WP1034, AG1801, and AG490 were tested across a range of concentrations (6,12, and 25 μM) for their ability to inhibit c-myc expression using immunoblots.
These immunoblots tested a range of concentrations (1.56-25 μM for WP compounds) and used β-actin as a control.

c-myc/Stat3 = assay: Stat3/c-myc inhibitory activity in MM-1 cells (FIG. 7)
From the text: An improved inhibition of c-myc/Stat3 by WP1066, WP1130, and WP1129 was observed (FIG. 7). The compounds were compared with regard to their Stat3/c-myc inhibitory activity in MM-1 cells.

MM-1 MM cells = assay: MTT cell growth and survival assay, MM-1 MM cells; details: for IC50 / Growth and survival of MM1 cells (in words): 72 hours; for IC50: MTT assay, read-out: IC50 (μM) MM1; for Growth and survival of MM1 cells (in words): MTT, FIG. 2A/3A
Method: (§2) To determine the effect of AG and WP compounds on MM cell growth/survival, MM cells were incubated with the indicated concentration of AG or WP for 72 hours before cell growth and survival were estimated by MTT assay.
(§3) To determine the effect of AG and WP compounds on MM cell growth/survival MM cells were incubated with the indicated concentration of AG or WP for 72 hours before cell growth and survival were estimated by MTT assay.

c-myc [2] = assay: c-myc protein immunoblot in LP non-Hodgkin lymphoma cells; details: LP cells, 3-25 μM
Method: Additional cell types were examined for response to treatment with WP1066.
(§4) Further studies were conducted to determine the dose and time dependent effects of these new compounds on IL-6 mediated Stat3 activation, c-myc protein expression and anti-proliferative of LP and other cell types.

Stat3 [3] = assay: IL-6 mediated Stat3 activation immunoblot in LP cells; details: 3-25 μM
Method: as §4

Stat3 [4] = assay: IL-6 mediated Stat3 activation (p-Stat3 immunoblot) in MM cells; parameters: key to P-Stat 3: (inhibition = ↓); (no effect) = —; details: for P-Stat 3: Stat3 inhibition, immunoblot
Method: To examine the effect of newly synthesized AG and WP compounds on cytokine-mediated Stat activation, multiple myeloma (MM-1) cells were pretreated with AG490 or AG1801 at 2.5, 12, and 25 μM concentrations (for 2 hr) before stimulating cells with IL-6 or IFN-α for 10 min. Stat3 and Stat1 expression and activation were examined by immunoblotting.
as §1, with “control). Both Stat3 activation and c-myc expression were effected by WP and AG compounds.” for “control).”

U266 MM cells = assay: MTT cell growth and survival assay, U266 MM cells; details: 72 hours; for Growth and survival of U266 cells (in words): MTT, FIG. 2C/3C; for IC50: Homo sapiens, U-266, MTT assay
Method: as §2, §3

OCI MM cells = assay: MTT cell growth and survival assay, OCI MM cells; details: 72 hours; for IC50: MTT assay; for Growth and survival of OCI cells (in words): MTT, FIG. 2B/3B
Method: as §2, §3

SMILES | IC50 (MM-1 MM cells) [µM] | C-Myc (c-myc [1]) | IC50 (U266 MM cells) [µM] | IC50 (OCI MM cells) [µM] | further results
C[C@@H]1C[C@@H]([C@H](O)CC2CC(=O)NC(=O)C2)C(=O)[C@@H](C)C1 [CHX, cycloheximide, reference compound] | – | – | – | – | Suppression of c-myc protein expression (c-myc [1]; 1.56-25 μM WP compounds, CHX 0-30 min at much higher concentrations): did not result in the rapid reduction of c-myc
CCC[C@H](NC(=O)/C(C#N)=C/c1cccc(Br)n1)c1ccccc1 [WP1130] | – | – | – | – | Inhibition of c-myc/Stat3 (c-myc/Stat3): Strong inhibition; IC50 against MM-1 myeloma relative to WP1066 (MM-1 MM cells; FIG. 6): even better than compound WP1066
N#C/C(=C\c1cccc(Br)n1)C(=O)NCc1ccccc1 [WP 1015] | 1.9 | ↓ | – | – | c-myc expression (c-myc [2]): reduced c-myc expression; IL-6 mediated Stat3 activation (Stat3 [3]): blocked IL-6 mediated Stat3 activation; Inhibition of Stat3 phosphorylation (Stat3 [4]; MM-1 cells): more effective in inhibiting Stat3 phosphorylation; Inhibition of c-myc protein expression (c-myc [1]; 6, 12, 25 μM, AG490 up to 50 μM): more active than previously synthesized WP compounds
C[C@@H](NC(=O)/C(C#N)=C/c1ccc([N+](=O)[O-])cc1)c1ccccc1 [WP 1034] | 3.5 | ↓ | 4.5 | 6.3 | Growth and survival of U266 cells (in words) (U266 MM cells): effective in reducing the growth and survival; also recorded: demonstrated increased potency compared to AG490; Growth and survival of OCI cells (in words) (OCI MM cells): effective in reducing the growth and survival; also recorded: demonstrated increased potency compared to AG490; Growth and survival of MM1 cells (in words) (MM-1 MM cells): effective in reducing the growth and survival; also recorded: demonstrated increased potency compared to AG490
C[C@@H](NC(=O)/C(C#N)=C/c1ccc([N+](=O)[O-])c(O)c1)c1ccccc1 [WP 1038] | 6.2 | ↓ | 11.8 | > 12.5 | P-Stat 3 (Stat3 [4]): ↓
C[C@H](NC(=O)/C(C#N)=C/c1ccc([N+](=O)[O-])cc1)c1ccccc1 [WP 1050] | 2.1 | ↓ | 5 | > 12.5 | Growth and survival of U266 cells (in words) (U266 MM cells): demonstrated increased potency compared to AG490; Growth and survival of OCI cells (in words) (OCI MM cells): demonstrated increased potency compared to AG490; Growth and survival of MM1 cells (in words) (MM-1 MM cells): demonstrated increased potency compared to AG490
C[C@H](NC(=O)/C(C#N)=C/c1ccc([N+](=O)[O-])c(O)c1)c1ccccc1 [WP 1051] | 5.5 | ↓ | 11.1 | > 12.5 | P-Stat 3 (Stat3 [4]): ↓
C[C@H](NC(=O)/C(C#N)=C/c1ccccn1)c1ccccc1 [WP 1065] | 3 | – | – | – | –
N#C/C(=C\c1cc(O)ccc1[N+](=O)[O-])C(=O)NCc1ccccc1 [WP 1073] | > 2.5 | – | – | – | –
N#C/C(=C\c1cccc([N+](=O)[O-])c1)C(=O)NCc1ccccc1 [WP 1074] | > 2.5 | – | – | – | –
N#C/C(=C\c1cccnc1)C(=O)NCc1ccccc1 [WP 1075] | > 2.5 | – | – | – | –
CN(C)c1ccc(/C=C(\C#N)C(=O)NCc2ccccc2)c([N+](=O)[O-])c1 [WP 1076] | > 2.5 | – | – | – | –
N#C/C(=C\c1ccc(Cl)c([N+](=O)[O-])c1)C(=O)NCc1ccccc1 [WP 1077] | 2.5 | – | – | – | –
